Assays:
[1] = system: PDE4A, PDE4B, PDE4D, PDE7A, PDE7B, PDE8A, PDE3A; assay: Summary of PDE inhibitor profile; design: key to PDE inhibitor profile (Table 17): (1): Strong PDE4A, PDE4B inhibitor; (2): Strong PDE4A inhibitor; (3): Strong PDE4B, moderate PDE4A inhibitor; (4): Moderate PDE4A, PDE4B inhibitor; (5): Moderate PDE4B inhibitor; key to inhibitor class, Table 16: (1): Weak PDE7A inhibitor; (2): Strong PDE7A inhibitor; (3): Lillte/no activity under conditions used; (4): Weak PDE4A inhibitor
[2] = molecular target: T1, PDE4B3 (Mus musculus, UniProt Q8VBU5); assay: 5FOA growth assay in fission yeast strain expressing PDE4B3; assay type: cell-based, Murine; conditions: 20 uM
T1 construct: targets used in the assays are full-length proteins (as opposed to simply the catalytic domain); expressed in transfected cells; host or cells: Schizosaccharomyces pombe, PDE gene integrated in place of cgs2
T1 sequence (Q8VBU5 1-721): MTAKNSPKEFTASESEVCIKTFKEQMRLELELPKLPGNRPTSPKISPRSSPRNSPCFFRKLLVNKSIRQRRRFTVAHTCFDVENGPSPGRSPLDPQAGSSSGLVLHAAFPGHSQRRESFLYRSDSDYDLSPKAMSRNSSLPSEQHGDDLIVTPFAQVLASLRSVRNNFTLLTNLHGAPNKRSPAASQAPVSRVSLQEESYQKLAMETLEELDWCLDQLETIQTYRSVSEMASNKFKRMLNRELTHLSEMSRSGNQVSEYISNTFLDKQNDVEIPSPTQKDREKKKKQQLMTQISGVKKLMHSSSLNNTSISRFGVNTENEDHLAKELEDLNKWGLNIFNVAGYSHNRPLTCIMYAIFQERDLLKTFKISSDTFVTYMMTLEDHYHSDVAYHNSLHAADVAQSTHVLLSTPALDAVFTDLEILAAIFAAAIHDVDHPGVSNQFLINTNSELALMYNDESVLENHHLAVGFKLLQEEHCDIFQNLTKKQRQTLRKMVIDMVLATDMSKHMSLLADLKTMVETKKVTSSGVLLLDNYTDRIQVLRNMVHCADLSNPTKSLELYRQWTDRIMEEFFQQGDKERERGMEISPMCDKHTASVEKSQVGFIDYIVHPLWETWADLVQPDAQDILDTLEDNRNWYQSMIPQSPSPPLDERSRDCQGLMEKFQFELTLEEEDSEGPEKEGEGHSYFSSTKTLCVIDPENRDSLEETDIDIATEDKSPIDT
How it was run: (§1)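 Readout is OD600 after 48 h at 30° C in 5FOA medium, starting from 0.5–4×10^5 cells/ml; 5 mM cAMP served as positive control. Yeast expressing mouse PDE4A1 or PDE4B3 with an fbp1-ura4 reporter was first grown to exponential phase in EMM plus 0.5–2.5 mM cAMP. Hits were scored by composite Z scores.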

[3] = molecular target: T2, PDE7A (Homo sapiens, UniProt Q13946); assay: 5FOA growth assay in fission yeast strain expressing PDE7A; assay type: cell-based; design: targets used in the assays are full-length proteins (as opposed to simply the catalytic domain); expressed in transfected cells; host or cells: Schizosaccharomyces pombe, PDE gene integrated in place of cgs2; conditions: unit not given
T2 sequence (Q13946 whole entry, the tested form may be a part): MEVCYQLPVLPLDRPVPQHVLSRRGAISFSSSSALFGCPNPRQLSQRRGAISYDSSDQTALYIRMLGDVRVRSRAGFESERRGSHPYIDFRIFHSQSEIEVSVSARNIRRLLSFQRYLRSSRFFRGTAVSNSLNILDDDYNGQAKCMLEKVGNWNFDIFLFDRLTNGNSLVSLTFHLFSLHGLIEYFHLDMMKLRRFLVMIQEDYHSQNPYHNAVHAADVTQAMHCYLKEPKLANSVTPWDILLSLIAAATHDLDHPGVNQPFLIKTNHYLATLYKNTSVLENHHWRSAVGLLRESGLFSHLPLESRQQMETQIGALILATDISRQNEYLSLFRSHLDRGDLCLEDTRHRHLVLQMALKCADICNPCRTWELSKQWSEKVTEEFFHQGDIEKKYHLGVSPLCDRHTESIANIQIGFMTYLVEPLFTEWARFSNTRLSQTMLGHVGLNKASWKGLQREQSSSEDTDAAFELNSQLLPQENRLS
Method: PDE inhibition allows growth in 5FOA medium as measured by optical density after 48 hours incubation at 30° C. Compound BC12 and six structural analogs were tested for growth stimulation.
Cells were pregrown in EMM medium [MP Biomedicals (Solon, Ohio), 3% glucose, filter-sterilized to avoid carmelization, which would introduce variability into the optical density of the medium] containing from 0 mM to 2.5 mM cAMP (or either 0.5 mM or 1.0 mM cGMP). This was to repress expression of the fbp1-ura4 reporter prior to exposure of cells to 5FOA medium. Cells were grown at 30° C. to exponential phase (approximately 10^7 cells/ml). Cells were collected by centrifugation and resuspended in 5FOA medium, and 25 μl were transferred to 384-well microtiter dishes (untreated, with flat clear bottoms) that had been pre-filled with 25 μl 5FOA medium and pre-pinned with 100 nl of compounds (stock solutions were generally 10 mM). Starting cell concentrations ranged from 0.5×10^5 to 4×10^5 cells/ml depending on the screening strain. […] Other positive control dishes contained 5 mM cAMP in the 5FOA medium for PDEs that lack appropriate control compounds. Cultures were grown for 48 hours at 30° C., sealed in an airtight container with moist paper towels to prevent evaporation. Optical densities (OD600) of cultures were measured using a microplate reader. Bioinformatic analysis of the results to determine composite Z scores was performed as previously described (1, 3).

[4] = molecular target: T3, PDE4D2-CAT (Homo sapiens, UniProt Q08499); assay: in vitro enzyme assay, catalytic fragment of PDE4D2 (residues 86-413); assay type: biochemical
T3 construct: 86-413; made in house; host or cells: E. coli
T3 sequence (Q08499 388-715): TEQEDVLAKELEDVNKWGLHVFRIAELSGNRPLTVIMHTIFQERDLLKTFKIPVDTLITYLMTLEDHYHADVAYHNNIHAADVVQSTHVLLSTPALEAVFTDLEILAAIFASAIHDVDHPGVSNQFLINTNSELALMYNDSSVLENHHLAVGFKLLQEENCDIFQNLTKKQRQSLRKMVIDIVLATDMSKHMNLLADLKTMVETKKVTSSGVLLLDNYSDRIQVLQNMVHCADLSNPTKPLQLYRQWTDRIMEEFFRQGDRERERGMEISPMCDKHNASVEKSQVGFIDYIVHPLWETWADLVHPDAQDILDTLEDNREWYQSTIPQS

[5] = molecular target: PDE4B (Homo sapiens, UniProt Q07343); assay: in vitro enzyme assay PDE4B (Table 7); assay type: biochemical; conditions: 2 micromolar compound; for remaining activity at 2 µM: read-out: percent of PDE activity present, PDE4B
PDE4B, sequence (Q07343 whole entry, species assumed): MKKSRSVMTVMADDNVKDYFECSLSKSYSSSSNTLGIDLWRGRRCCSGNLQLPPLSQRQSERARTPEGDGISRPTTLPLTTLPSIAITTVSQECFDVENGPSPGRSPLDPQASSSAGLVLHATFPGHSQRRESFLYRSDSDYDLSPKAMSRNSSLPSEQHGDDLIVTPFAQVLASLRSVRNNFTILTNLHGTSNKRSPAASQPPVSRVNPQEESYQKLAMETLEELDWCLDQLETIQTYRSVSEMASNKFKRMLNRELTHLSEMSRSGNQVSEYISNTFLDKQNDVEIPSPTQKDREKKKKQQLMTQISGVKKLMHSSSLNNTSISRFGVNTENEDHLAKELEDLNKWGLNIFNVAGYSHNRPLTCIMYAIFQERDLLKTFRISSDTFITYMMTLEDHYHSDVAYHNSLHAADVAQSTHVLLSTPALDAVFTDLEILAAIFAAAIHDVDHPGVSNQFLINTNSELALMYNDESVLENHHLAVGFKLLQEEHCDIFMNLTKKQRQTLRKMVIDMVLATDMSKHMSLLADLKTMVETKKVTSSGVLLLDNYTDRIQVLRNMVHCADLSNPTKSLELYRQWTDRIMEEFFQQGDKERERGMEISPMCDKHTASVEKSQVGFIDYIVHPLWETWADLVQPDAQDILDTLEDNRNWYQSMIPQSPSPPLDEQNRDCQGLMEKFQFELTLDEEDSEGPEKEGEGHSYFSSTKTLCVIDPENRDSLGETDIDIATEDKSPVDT

[6] = molecular target: PDE4A (Homo sapiens, UniProt P27815); assay: in vitro enzyme assay PDE4A (Table 7); assay type: biochemical; conditions: 2 micromolar compound; for remaining activity at 2 µM: read-out: percent of PDE activity present, PDE4A
PDE4A, sequence (P27815 whole entry, species assumed): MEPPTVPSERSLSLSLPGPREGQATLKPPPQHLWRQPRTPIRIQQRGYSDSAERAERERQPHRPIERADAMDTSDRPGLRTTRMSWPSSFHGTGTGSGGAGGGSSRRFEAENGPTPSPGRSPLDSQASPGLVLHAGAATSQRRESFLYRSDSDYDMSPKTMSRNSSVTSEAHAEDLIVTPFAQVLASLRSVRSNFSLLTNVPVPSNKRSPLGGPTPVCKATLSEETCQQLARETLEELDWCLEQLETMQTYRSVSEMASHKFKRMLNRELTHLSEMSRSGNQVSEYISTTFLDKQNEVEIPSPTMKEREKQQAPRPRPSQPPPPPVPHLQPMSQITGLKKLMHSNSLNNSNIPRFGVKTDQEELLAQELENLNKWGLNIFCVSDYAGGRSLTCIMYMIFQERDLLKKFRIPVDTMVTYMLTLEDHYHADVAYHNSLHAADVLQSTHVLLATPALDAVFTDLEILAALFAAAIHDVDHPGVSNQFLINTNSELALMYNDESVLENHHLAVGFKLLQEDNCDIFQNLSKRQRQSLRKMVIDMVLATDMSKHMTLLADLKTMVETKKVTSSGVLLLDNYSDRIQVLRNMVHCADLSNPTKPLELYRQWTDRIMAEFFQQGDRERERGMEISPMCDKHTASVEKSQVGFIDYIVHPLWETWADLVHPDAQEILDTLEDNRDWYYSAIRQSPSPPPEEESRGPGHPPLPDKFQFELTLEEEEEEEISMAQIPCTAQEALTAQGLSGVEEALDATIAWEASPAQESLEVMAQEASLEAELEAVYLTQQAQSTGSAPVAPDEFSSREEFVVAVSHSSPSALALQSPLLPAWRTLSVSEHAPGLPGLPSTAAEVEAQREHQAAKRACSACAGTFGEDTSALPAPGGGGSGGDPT

[7] = molecular target: PDE4D (Homo sapiens, UniProt Q08499); assay: in vitro enzyme assay PDE4D (Table 7); assay type: biochemical; conditions: 2 micromolar compound; for remaining activity at 2 µM: read-out: percent of PDE activity present, PDE4D
PDE4D, sequence (Q08499 whole entry): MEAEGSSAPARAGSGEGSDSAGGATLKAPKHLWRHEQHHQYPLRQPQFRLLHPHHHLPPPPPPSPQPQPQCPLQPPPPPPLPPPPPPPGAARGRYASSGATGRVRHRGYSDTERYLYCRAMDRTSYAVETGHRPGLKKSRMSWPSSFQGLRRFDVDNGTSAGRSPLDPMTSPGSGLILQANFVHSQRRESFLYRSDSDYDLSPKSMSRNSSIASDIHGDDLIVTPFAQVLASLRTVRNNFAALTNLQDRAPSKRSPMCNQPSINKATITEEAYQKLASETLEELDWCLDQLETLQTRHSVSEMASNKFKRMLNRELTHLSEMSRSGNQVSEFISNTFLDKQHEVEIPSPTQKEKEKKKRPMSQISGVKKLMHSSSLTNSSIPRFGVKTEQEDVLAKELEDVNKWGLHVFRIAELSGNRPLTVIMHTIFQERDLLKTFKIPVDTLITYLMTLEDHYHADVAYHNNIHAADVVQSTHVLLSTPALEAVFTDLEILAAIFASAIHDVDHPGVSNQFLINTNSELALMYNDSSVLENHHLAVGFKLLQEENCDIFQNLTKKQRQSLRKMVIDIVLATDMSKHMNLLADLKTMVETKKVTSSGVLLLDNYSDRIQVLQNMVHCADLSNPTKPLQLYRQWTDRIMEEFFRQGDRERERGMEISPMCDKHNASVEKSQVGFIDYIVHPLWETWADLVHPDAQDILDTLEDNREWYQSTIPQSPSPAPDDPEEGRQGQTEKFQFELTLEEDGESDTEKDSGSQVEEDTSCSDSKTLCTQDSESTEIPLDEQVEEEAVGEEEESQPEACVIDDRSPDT

[8] = molecular target: T2, PDE7A; assay: in vitro enzyme assay PDE7A; assay type: biochemical; design: made in house; host or cells: E. coli; conditions: 2 micromolar compound; for remaining activity at 2 µM: read-out: percent of PDE activity present, PDE7A
[9] = system: PDE2A, PDE4A, PDE4B, Cgs2; assay: Parallel high throughput 5FOA growth screens of bioactive libraries; assay type: cell-based, murine PDEs; yeast Cgs2; conditions: 3,120 bioactive compounds, average 20 μM
Method: High throughput drug screens were carried out at the Broad Institute's Chemical Biology Program screening facility (Broad Institute, Cambridge, Mass.). Depending upon the strain, cultures were pregrown to exponential phase in EMM complete medium containing from 0.5 to 2.5 mM cAMP to repress fbp1-ura4 transcription. […] Starting cell concentrations ranged from 0.5×10^5 to 4×10^5 cells/ml depending on the screening strain. […] Other positive control dishes contained 5 mM cAMP in the 5FOA medium. Cultures were grown for 48 hours at 30° C., sealed in an airtight container with moist paper towels to prevent evaporation. Optical densities (OD600) of cultures were measured using a microplate reader. Bioinformatic analysis of the results to determine composite Z scores was performed as previously described^30, 31.

[10] = molecular target: T4, PDE4A1 (Mus musculus, UniProt O89084); assay: 5FOA growth assay (high throughput screen, ED50) in fission yeast strain expressing PDE4A1; assay type: cell-based; conditions: high throughput 5FOA growth screen; greater than 8.53 = statistically-significant inhibitor
T4 construct: targets used in the assays are full-length proteins (as opposed to simply the catalytic domain); expressed in transfected cells; host or cells: Schizosaccharomyces pombe, PDE gene integrated in place of cgs2
T4 sequence (O89084 1-610 isoform O89084-2): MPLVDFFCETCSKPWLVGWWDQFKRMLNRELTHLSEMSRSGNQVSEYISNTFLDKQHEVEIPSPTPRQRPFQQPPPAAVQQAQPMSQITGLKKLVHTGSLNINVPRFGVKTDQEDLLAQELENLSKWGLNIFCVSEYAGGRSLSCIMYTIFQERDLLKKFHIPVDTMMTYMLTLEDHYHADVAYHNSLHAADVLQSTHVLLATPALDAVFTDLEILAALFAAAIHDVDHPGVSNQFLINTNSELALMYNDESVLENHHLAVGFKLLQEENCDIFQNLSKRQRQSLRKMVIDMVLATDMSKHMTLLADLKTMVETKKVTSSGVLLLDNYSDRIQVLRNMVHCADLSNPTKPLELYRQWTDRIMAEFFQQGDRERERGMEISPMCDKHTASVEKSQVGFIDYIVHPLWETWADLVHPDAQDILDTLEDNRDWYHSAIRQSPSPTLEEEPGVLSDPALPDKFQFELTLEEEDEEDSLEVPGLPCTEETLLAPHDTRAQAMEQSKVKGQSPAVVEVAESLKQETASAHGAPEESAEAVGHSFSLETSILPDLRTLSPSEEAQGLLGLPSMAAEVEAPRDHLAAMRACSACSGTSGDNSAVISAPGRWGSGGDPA
How it was run: as §1

[11] = system: U937 cells; assay: TNF alpha release by LPS-treated U937 cells; assay type: cell-based; conditions: for TNF alpha, % vehicle control: 10 uM cmpd, 0 uM BC30

## N#Cc1sc2sc(C#N)c(-c3ccc(Cl)cc3)c2c1N [Compound 30-3]
[1]
  inhibitor class, Table 16: 554, N12 KM03474 30-3 (3)
[2]
  1 Assay (20 uM) 4B3: 1.462 ND ND ND ND
[3]
  ED50, 7A: ND ND inactive ND ND

## N#Cc1sc2sc(C#N)c(-c3ccco3)c2c1N [BC30]
[4]; 2 uM compound
  PDE4D catalytic domain, 2 uM cpm: 2583 cpm
[4]; 2 micromolar compound, DMSO = 100
  In vitro activation of PDE4D catalytic domain, % activity: 139%

## Cc1c(C(=O)Nc2ccc(F)cc2F)sc2ncnc(N3CCN(C)CC3)c12 [Compound 58-1]
[5]
  remaining activity at 2 µM: 64%
[6]
  remaining activity at 2 µM: 84%
[7]
  remaining activity at 2 µM: 90%
[8]
  remaining activity at 2 µM: 98%

## N#Cc1sc2sc(C#N)c(-c3cccs3)c2c1N [Compound 30-2]
[1]
  inhibitor class, Table 16: 1441, G04 KM03473 30-2 (1)
[2]
  1 Assay (20 uM) 4B3: −0.3999 ND ND ND ND
[3]
  ED50, 7A: ND ND active/plateaus ND ND

## Cc1cc2cc3c(C)cc(=O)oc3c(C)c2o1 [trioxsalen]
[9]
  hit in high throughput screens (promotes 5FOA^R growth), in words: identified

## Cc1nc(N2CCOCC2)c2c(C)c(C(=O)Nc3ccc(F)cc3F)sc2n1 [Compound 58-2]
[5]
  remaining activity at 2 µM: 39%
[6]
  remaining activity at 2 µM: 26%
[7]
  remaining activity at 2 µM: 30%
[8]
  remaining activity at 2 µM: 88%

## CC(C)(C)c1c(C#N)sc2sc(C#N)c(N)c12 [Compound 30-4]
[1]
  inhibitor class, Table 16: Maybridge: KM03484 30-4 (3)
[3]
  ED50, 7A: ND ND weak activity ND ND

## Cc1c(C(=O)Nc2ccc3c(c2)OCCO3)sc2ncnc(N3CCc4ccccc4C3)c12 [Compound 58-10]
[5]
  remaining activity at 2 µM: 39%
[6]
  remaining activity at 2 µM: 60%
[7]
  remaining activity at 2 µM: 70%
[10]
  Composite Z score, PDE4A1: 32.338
[8]
  remaining activity at 2 µM: 84%

## CCN(CC)c1nc(C)nc2sc(C(=O)Nc3ccc(F)cc3F)c(C)c12 [Compound 58-8]
[5]
  percent of PDE activity present, PDE4B: 56%
[6]
  percent of PDE activity present, PDE4A: 84%
[7]
  percent of PDE activity present, PDE4D: 76%
[8]
  percent of PDE activity present, PDE7A: 48%

## CCOC(=O)c1sc2sc(C(=O)OCC)c(-c3ccco3)c2c1N [Compound 30-1]
[1]
  inhibitor class, Table 16: 1441, C04 KM03459 30-1 (4)
[2]
  1 Assay (20 uM) 4B3: 8.4406 ND ND ND ND
[3]
  ED50, 7A: ND ND inactive ND ND

## Cc1nc(N2CCCCC2C)c2c(C)c(C(=O)Nc3ccc(F)cc3F)sc2n1 (stereo not shown) [Compound 58-4]
[5]
  remaining activity at 2 µM: 47%
[6]
  remaining activity at 2 µM: 26%
[7]
  remaining activity at 2 µM: 54%
[8]
  remaining activity at 2 µM: 74%

## COc1c2ccoc2cc2oc(C)cc(=O)c12 [visnagin]
[9]
  hit in high throughput screens (promotes 5FOA^R growth), in words: identified

## COc1c2occc2c(OC)c2c(=O)cc(C)oc12 [khellin]
[9]
  hit in high throughput screens (promotes 5FOA^R growth), in words: identified

## Cc1nc(N2CCC(C)CC2)c2c(C)c(C(=O)Nc3c(F)cc(F)cc3Br)sc2n1 [Compound 58-5]
[5]
  remaining activity at 2 µM: 46%
[6]
  remaining activity at 2 µM: 69%
[7]
  remaining activity at 2 µM: 68%
[8]
  remaining activity at 2 µM: 90%

## COc1cc(NC(=O)c2sc3ncnc(N4CCCCC4C)c3c2C)cc(OC)c1OC (stereo not shown) [Compound 58-3]
[5]
  remaining activity at 2 µM: 15%
[6]
  remaining activity at 2 µM: 14%
[7]
  remaining activity at 2 µM: 30%
[10]
  Composite Z score, PDE4A1: 27.41
[8]
  remaining activity at 2 µM: 20%

## Cc1ccc([N+](=O)[O-])cc1S(=O)(=O)N(C)C [BRL]
[11]; 3 HOURS
  TNF alpha (EtoH = 100.0): 92.5
[11]; 3 HOURS, high BRL
  TNF: 4565 pg/mL
  TNF, % EtOH cntrl: 94.5%
[11]; 3 HOURS, low BRL
  TNF: 4491 pg/mL
  TNF, % EtOH cntrl: 93.0%
[11]; 20 HOURS
  TNF alpha (EtoH = 100.0): 102.6
[11]; 20 HOURS, high BRL
  TNF: 13111 pg/mL
  TNF, % EtOH cntrl: 95.8%
[11]; 20 HOURS, low BRL
  TNF: 12718 pg/mL
  TNF, % EtOH cntrl: 92.9%

## CC(C)n1c2ccc(Cl)cc2c2nc3ccccc3nc21 [Compound 35]
[1]; overall classification, Table 17 footnotes
  PDE inhibitor profile (Table 17): 35 (1)
[11]; 3 HOURS
  TNF: 4383 pg/mL
  TNF, % EtOH cntrl: 90.7%
[11]; 20 HOURS
  TNF: 11728 pg/mL
  TNF, % EtOH cntrl: 85.7%
[11]; after 3 h.
  TNF alpha, % vehicle control: 95.8%
[11]; after 20 h.
  TNF alpha, % vehicle control: 66.1%

## CCN(CC)c1nc(C)nc2sc(C(=O)Nc3ccc(F)cc3F)c(C)c12 [Compound 58-6]
[5]
  remaining activity at 2 µM: 61%
[6]
  remaining activity at 2 µM: 73%
[7]
  remaining activity at 2 µM: 68%
[8]
  percent of PDE activity present, PDE7A: 75%
